How the values were obtained:
His6-JNK2 = molecular target: T1, His6-JNK2 (Homo sapiens, UniProt P45984); assay: JNK assay (c-Jun phosphorylation), JNK2; format: biochemical; conditions: read-out: IC50 for JNK2 (c-Jun phosphorylation reduced to 50% of control)
T1 construct: His6 (N)
Protocol: (§1) To 10 μL of 5-amino-anthra(9,1-cd)isothiazol-6-one in 20% DMSO/80% dilution buffer containing of 20 mM HEPES (pH 7.6), 0.1 mM EDTA, 2.5 mM magnesium chloride, 0.004% Triton ×100, 2 μg/mL leupeptin, 20 mM β-glycerolphosphate, 0.1 mM sodium vanadate, and 2 mM DTT in water was added 30 μL of 50-200 ng His6-JNK1, JNK2, or JNK3 in the same dilution buffer. The mixture was pre-incubated for 30 minutes at room temperature. Sixty microliter of 10 μg GST-c-Jun(1-79) in assay buffer consisting of 20 mM HEPES (pH 7.6), 50 mM sodium chloride, 0.1 mM EDTA, 24 mM magnesium chloride, 1 mM DTT, 25 mM PNPP, 0.05% Triton ×100, 11 μM ATP, and 0.5 μCi γ-32P ATP in water was added and the reaction was allowed to proceed for 1 hour at room temperature. The c-Jun phosphorylation was terminated by addition of 150 μL of 12.5% trichloroacetic acid. After 30 minutes, the precipitate was harvested onto a filter plate, diluted with 50 μL of the scintillation fluid and quantified by a counter. The IC50 values were calculated as the concentration of 5-amino-anthra(9,1-cd)isothiazol-6-one at which the c-Jun phosphorylation was reduced to 50% of the control value. Compounds that inhibit JNK preferably have an IC50 value ranging 0.01-10 μM in this assay. 5-Amino-anthra(9,1-cd)isothiazol-6-one has an IC50 according to this assay of 1 μM for JNK2 and 400 nM for JNK3.

His6-JNK3 = molecular target: T2, His6-JNK3 (Homo sapiens, UniProt P53779); assay: JNK assay (c-Jun phosphorylation), JNK3; format: biochemical; conditions: read-out: IC50 for JNK3 (c-Jun phosphorylation reduced to 50% of control)
T2 construct: His6 (N)
T2 sequence (P53779 whole entry): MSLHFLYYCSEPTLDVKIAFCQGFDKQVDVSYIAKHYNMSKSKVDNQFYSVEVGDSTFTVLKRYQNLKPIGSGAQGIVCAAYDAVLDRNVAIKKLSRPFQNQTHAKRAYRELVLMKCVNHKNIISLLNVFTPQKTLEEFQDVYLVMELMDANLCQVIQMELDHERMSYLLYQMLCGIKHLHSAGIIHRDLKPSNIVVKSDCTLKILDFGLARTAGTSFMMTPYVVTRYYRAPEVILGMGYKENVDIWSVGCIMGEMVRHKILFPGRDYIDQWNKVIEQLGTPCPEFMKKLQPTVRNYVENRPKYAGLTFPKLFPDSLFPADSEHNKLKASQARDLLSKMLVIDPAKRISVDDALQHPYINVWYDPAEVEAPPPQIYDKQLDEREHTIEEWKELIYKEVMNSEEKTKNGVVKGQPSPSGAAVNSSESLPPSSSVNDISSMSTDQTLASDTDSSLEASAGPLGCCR
Protocol: as §1

p38-2 = p38-2 (Homo sapiens, UniProt Q15759); assay: Selectivity for JNK: protein kinase panel, p38-2; format: biochemical
Sequence of p38-2 (Q15759 whole entry, species assumed): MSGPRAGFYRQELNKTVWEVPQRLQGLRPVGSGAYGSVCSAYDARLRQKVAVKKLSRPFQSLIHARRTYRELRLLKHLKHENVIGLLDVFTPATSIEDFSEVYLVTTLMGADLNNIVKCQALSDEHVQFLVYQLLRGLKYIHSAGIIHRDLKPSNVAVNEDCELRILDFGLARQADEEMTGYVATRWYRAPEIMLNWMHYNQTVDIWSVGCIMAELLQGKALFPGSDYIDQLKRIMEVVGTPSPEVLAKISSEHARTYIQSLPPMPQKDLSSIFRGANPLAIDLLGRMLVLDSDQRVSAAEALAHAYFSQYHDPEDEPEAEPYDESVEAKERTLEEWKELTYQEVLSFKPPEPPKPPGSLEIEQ
Protocol: (§2) 5-Amino-anthra(9,1-cd)isothiazol-6-one was also assayed for its inhibitory activity against several protein kinases, listed below, using techniques known to those skilled in art (See, e.g., Protein Phosphorylation, Sefton & Hunter, Eds., Academic Press, pp. 97-367, 1998).

MEK6 = molecular target: T3, MEK6 (Homo sapiens, UniProt P52564); assay: Selectivity for JNK: protein kinase panel, MEK6; format: biochemical
T3 sequence (P52564 1-334): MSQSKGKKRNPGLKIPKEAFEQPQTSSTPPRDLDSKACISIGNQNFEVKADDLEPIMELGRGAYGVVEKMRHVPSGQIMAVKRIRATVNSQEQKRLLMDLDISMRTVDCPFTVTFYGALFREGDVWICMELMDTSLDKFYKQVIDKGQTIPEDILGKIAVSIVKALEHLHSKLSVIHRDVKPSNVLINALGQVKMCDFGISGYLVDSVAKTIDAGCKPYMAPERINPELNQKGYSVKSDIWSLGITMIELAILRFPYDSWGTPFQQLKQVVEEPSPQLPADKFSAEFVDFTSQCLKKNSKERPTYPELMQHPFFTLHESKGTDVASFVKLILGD
Protocol: as §2

LKK1 = molecular target: T4, LKK1 (Homo sapiens, UniProt O15111); assay: Selectivity for JNK: protein kinase panel, LKK1; format: biochemical
T4 sequence (O15111 1-745): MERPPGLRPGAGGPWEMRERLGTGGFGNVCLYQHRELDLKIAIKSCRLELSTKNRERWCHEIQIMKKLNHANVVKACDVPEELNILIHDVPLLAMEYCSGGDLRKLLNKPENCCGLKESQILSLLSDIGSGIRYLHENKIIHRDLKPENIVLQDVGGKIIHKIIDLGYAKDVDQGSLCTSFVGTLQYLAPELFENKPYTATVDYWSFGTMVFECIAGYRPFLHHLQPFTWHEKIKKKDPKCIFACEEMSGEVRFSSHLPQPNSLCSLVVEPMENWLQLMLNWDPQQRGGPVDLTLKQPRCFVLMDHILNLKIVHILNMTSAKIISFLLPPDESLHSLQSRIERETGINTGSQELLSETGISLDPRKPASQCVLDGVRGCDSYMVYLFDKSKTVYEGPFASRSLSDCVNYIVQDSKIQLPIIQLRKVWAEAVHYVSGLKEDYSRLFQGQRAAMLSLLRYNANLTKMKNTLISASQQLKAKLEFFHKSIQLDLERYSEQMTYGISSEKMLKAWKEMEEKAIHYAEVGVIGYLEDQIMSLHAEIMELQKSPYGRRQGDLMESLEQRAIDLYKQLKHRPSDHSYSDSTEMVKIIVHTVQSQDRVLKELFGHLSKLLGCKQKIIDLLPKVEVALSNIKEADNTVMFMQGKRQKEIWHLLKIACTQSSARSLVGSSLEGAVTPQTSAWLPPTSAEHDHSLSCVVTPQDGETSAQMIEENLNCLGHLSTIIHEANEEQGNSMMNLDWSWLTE
Protocol: as §2

IKK2 = molecular target: T5, IKK2 (Homo sapiens, UniProt O14920); assay: Selectivity for JNK: protein kinase panel, IKK2; format: biochemical
T5 sequence (O14920 1-756): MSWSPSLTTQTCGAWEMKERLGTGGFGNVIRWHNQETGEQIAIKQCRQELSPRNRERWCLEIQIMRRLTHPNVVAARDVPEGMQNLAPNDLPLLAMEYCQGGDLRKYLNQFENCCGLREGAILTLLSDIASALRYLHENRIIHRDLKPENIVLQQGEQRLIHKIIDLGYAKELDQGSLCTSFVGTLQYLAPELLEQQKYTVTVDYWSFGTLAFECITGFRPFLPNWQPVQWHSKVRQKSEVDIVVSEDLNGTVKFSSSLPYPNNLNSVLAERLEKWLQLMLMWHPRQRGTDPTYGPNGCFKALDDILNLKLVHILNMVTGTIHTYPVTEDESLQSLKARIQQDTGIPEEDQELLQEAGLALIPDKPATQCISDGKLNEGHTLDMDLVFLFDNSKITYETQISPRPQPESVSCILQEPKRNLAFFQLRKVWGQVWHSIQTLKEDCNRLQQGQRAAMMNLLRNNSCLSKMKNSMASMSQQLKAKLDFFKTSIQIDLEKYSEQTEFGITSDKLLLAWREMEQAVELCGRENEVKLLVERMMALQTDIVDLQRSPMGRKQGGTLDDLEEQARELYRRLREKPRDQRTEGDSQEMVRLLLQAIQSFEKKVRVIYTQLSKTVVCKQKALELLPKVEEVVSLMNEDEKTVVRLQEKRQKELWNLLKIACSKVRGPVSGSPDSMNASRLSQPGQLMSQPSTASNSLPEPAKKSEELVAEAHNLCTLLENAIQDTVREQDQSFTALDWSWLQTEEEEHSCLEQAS
Protocol: as §2

[1] = tested on: IL-2 production in Jurkat T cells (clone E6-1); assay: Jurkat T-cell IL-2 production assay; format: cell-based; conditions: Homo sapiens, 10 h, read-out: IC50, IL-2 production reduced to 50% of control
Protocol: Jurkat T cells (clone E6-1) were purchased from the American Type Culture Collection of Manassas, Va. and maintained in growth media consisting of RPMI 1640 medium containing 2 mM L-glutamine (commercially available from Mediatech Inc. of Hemdon, Va.), with 10% fetal bovine serum (commercially available from Hyclone Laboratories Inc. of Omaha, Nebr.) and penicillin/streptomycin. All cells were cultured at 37° C. in 95% air and 5% CO2. Cells were plated at a density of 0.2×10^6 cells per well in 200 μL of media. Compound stock (20 mM) was diluted in growth media and added to each well as a 10× concentrated solution in a volume of 25 μL, mixed, and allowed to pre-incubate with cells for 30 minutes. The compound vehicle (dimethylsulfoxide) was maintained at a final concentration of 0.5% in all samples. After 30 minutes the cells were activated with PMA (phorbol myristate acetate, final concentration 50 ng/mL) and PHA (phytohemagglutinin, final concentration 2 μg/mL). PMA and PHA were added as a 10× concentrated solution made up in growth media and added in a volume of 25 μL per well. Cell plates were cultured for 10 hours. Cells were pelleted by centrifugation and the media removed and stored at −20° C. Media aliquots are analyzed by sandwich ELISA for the presence of IL-2 as per the manufacturers instructions (Endogen Inc. of Woburn, Mass.). […]

[2] = tested on: rat ventral mesencephalan dopaminergic neurons; assay: [3H]Dopamine cell culture assay (6-OHDA neurotoxicity); format: cell-based; conditions: 6-OHDA 30 μM, uptake 22 hours after exposure
Protocol: Cultures of dopaminergic neurons were prepared according to a modification of the procedure described by Raymon and Leslie (J. Neurochem. 62:1015-1024, 1994). Time-mated pregnant rats were sacrificed on embyronic day 14-15 (crown rump length 11-12 mm) and the embryos removed by cesarean section. The ventral mesencephalon, containing the dopaminergic neurons, was dissected from each embryo. Tissue pieces from approximately 48 embryos were pooled and dissociated both enzymatically and mechanically. An aliquot from the resulting cell suspension was counted and the cells were plated in high glucose DMEM/F12 culture medium with 10% fetal bovine serum at a density of 1×10^5 cells/well of a Biocoat poly-D-lysine-coated 96-well plate. The day following plating was considered 1 day in vitro (DIV). Cells were maintained in a stable environment at 37° C., 95% humidity, and 5% CO2. A partial medium change was performed at 3 DIV. […]
[^3H]Dopamine uptake is used as a measure of the health and integrity of dopaminergic neurons in culture (Prochiantz et al., PNAS 76: 5387-5391, 1979). […] Briefly, cells treated with 6-OHDA in the presence and absence of 5-amino-anthra(9,1-cd)isothiazol-6-one were assessed in the uptake assay 22 hrs after exposure to 6-OHDA. […] Radioactivity was removed and the cultures were washed 3× with ice cold PBS. […]

[3] = Brain-blood plasma distribution in vivo; parameters: species or system Sprague-Dawley rats; conditions: rat
Protocol: 5-Amino-anthra(9,1-cd)isothiazol-6-one was administered intravenously (10 mg/kg) into the veins of Sprague-Dawley rats. After 2 hr, blood samples were obtained from the animals and their vascular systems were perfused with approximately 100 mL of saline to rid their brains of blood. The brains were removed from the animals, weighed, and homogenized in a 50 mL conical tube containing 10 equivalents (w/v) of methanol/saline (1:1) using a Tissue Tearer (Fischer Scientific). The homogenized material was extracted by adding 600 μL of cold methanol to 250 μL of brain homogenate vortexed for 30 sec and subjected to centrifugation for 5 min. After centrifugation, 600 μL of the resulting supernatant was transferred to a clean tube and evaporated at room temperature under reduced pressure to provide a pellet. The resulting pellet was reconstituted in 250 μL of 30% aqueous methanol to provide a brain homogenate analysis sample. A plasma analysis sample was obtained using the brain homogenate analysis sample procedure described above by substituting plasma for brain homogenate. Standard plasma samples and standard brain homogenate samples containing known amounts of 5-amino-anthra(9,1-cd)isothiazol-6-one were also prepared by adding 5 μL of serial dilutions (50:1) of a solution of 5-amino-anthra(9,1-cd)isothiazol-6-one freshly prepared in cold ethanol to 250 μL of control rat plasma (Bioreclamation of Hicksville, N.Y.) or control brain homogenate. The standard plasma samples and standard brain homogenate samples were then subjected to the same extraction by protein precipitation, centrifugation, evaporation, and reconstitution procedure used for the brain homogenate to provide brain homogenate standard analysis samples and plasma standard analysis samples. The brain homogenate analysis samples, plasma analysis samples, and standard analysis samples were analyzed and compared using HPLC by injecting 100 μL of a sample onto a 5 μm C-18 Luna column (4.6 mm×150 mm, commercially available from Phenomenex of Torrance, Calif.) and eluting at 1 mL/min with a linear gradient of 30% aqueous acetonitrile containing 0.1% trifluoroacetic acid to 90% aqueous acetonitrile containing 0.1% trifluoroacetic acid over 8 minutes and holding at 90% aqueous acetonitrile containing 0.1% trifluoroacetic acid for 3 min. with absorbance detection at 450 nm. […] The concentration of 5-amino-anthra(9,1-cd) isothiazol-6-one in the brain and plasma was determined by comparing HPLC chromatograms obtained from the brain homogenate analysis samples and plasma analysis samples to standard curves constructed from analysis of the brain homogenate standard analysis samples and the plasma standard analysis samples, respectively. […]

[4] = Solubility in aqueous media (remark); format: physicochemical

T1 sequence (P45984 whole entry): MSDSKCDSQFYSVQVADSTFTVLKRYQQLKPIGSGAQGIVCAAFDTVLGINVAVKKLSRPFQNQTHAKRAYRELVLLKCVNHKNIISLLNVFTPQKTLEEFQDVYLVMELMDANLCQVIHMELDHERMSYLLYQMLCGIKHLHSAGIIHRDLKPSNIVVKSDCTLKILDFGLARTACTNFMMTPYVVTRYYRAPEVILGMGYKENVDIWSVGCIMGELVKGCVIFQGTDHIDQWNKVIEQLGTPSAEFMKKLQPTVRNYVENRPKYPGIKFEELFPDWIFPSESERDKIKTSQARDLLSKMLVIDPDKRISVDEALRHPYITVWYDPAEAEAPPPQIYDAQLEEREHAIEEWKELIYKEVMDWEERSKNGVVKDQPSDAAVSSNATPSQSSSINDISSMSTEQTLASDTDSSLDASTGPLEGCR

IC50 (His6-JNK2): 1 µM | IC50 (His6-JNK3): 0.4 µM | IC50 (p38-2): > 30 µM | IC50 (MEK6): > 30 µM | IC50 (LKK1): > 30 µM | IC50 (IKK2): > 30 µM | IC50 [1]: 30 µM | Kp at 2 h ([3]; Sprague-Dawley, iv, 10 mg/kg intravenously, 2 hr post-dose, assuming 1 g brain tissue equivalent to 1 mL plasma, read-out: Brain-plasma concentration ratio): ~9 | concentration at 2 h ([3]; Sprague-Dawley, plasma, iv, 10 mg/kg intravenously, 2 hr post-dose): ~7 µM | Brain-drug concentration ([3]; 10 mg/kg intravenously, 2 hr post-dose): approximately 65 nmole/g | Solubility in aqueous media [4]: limited solubility
Compound: Nc1ccc2snc3c2c1C(=O)c1ccccc1-3 [5-amino-anthra(9,1-cd)isothiazol-6-one]
Protection of dopaminergic neurons from 6-OHDA ([3H]dopamine uptake) [2]: protects rat ventral mesencephalan neurons from the toxic effects of 6-OHDA | Blood-brain barrier crossing ([3]; following intravenous administration): crosses the blood-brain barrier to a significant extent
